From US7659401B2, “Thiazolo[4,5-C]pyridine derivatives” (Hoffmann-La Roche Inc., priority 2005, dated 2010) come the findings set out here.

For this assay, the target named is T1, human mGlu 5a receptor (Homo sapiens, UniProt P41594).
T1 construct: expressed in transfected cells; host or cells: EBNA cells (transient transfection); cell membrane homogenates
T1 sequence (P41594 21-1180 isoform P41594-2 limits assumed): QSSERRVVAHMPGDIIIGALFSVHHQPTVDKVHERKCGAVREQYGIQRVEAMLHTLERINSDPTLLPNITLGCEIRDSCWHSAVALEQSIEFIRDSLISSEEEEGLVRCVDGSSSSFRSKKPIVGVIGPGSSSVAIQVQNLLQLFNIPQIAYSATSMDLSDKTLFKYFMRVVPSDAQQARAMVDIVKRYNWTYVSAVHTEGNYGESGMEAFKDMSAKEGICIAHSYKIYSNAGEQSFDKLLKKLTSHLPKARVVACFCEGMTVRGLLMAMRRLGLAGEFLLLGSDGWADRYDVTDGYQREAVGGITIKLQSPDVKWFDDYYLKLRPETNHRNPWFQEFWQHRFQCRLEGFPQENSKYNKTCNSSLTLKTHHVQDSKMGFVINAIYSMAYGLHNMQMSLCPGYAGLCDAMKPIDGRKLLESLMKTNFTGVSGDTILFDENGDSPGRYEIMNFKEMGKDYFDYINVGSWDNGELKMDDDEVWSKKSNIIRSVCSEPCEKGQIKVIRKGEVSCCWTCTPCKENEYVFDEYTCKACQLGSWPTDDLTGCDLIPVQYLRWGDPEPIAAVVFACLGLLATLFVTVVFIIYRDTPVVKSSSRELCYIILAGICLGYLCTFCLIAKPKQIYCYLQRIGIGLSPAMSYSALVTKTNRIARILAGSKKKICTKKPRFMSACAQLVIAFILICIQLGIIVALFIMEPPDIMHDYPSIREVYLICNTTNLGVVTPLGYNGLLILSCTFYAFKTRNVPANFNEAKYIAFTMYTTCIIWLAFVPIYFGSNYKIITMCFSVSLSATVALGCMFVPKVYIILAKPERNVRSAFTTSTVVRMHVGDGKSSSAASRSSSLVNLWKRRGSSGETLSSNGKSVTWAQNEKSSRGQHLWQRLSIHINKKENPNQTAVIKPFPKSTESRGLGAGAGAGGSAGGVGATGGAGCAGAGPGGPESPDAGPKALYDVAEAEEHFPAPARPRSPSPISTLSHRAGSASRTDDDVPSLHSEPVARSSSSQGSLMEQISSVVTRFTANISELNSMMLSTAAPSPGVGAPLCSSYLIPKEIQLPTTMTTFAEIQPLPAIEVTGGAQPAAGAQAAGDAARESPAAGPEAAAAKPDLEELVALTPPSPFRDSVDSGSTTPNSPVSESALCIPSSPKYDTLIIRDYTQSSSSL
The assay can be described thus: [3H]MPEP competition binding on membranes of EBNA cells transiently transfected with human mGlu 5a receptor. As to conditions: displacement of [3H]MPEP (2 nM), 1 h at 4° C., Ki=IC50/[1+L/Kd]. The protocol:
The pharmacological activity of the compounds was tested using the following method: For binding experiments, cDNA encoding human mGlu 5a receptor was transiently transfected into EBNA cells using a procedure described by Schlaeger and Christensen [Cytotechnology 15:1-13 (1998)]. Cell membrane homogenates were stored at −80° C. until the day of assay where upon they were thawed and resuspended and polytronised in 15 mM Tris-HCl, 120 mM NaCl, 100 mM KCl, 25 mM CaCl2, 25 mM MgCl2 binding buffer at pH 7.4 to a final assay concentration of 20 μg protein/well.
Saturation isotherms were determined by addition of twelve [^3H]MPEP concentrations (0.04-100 nM) to these membranes (in a total volume of 200 μL) for 1 h at 4° C. Competition experiments were performed with a fixed concentration of [^3H]MPEP (2 nM) and IC50 values of test compounds evaluated using 11 concentrations (0.3-10,000 nM). Incubations were performed for 1 h at 4° C.
At the end of the incubation, membranes were filtered onto unifilter (96-well white microplate with bonded GF/C filter preincubated 1 h in 0.1% PEI in wash buffer, Packard Bio-Science, Meriden, Conn.) with a Filtermate 96 harvester (Packard BioScience) and washed 3 times with cold 50 mM Tris-HCl, pH 7.4 buffer. Nonspecific binding was measured in the presence of 10 μM MPEP. The radioactivity on the filter was counted (3 min) on a Packard Top-count microplate scintillation counter with quenching correction after addition of 45 μl of microscint 40 (Canberra Packard S.A., Zürich, Switzerland) and shaking for 20 min.
For binding experiments the Ki values of the compounds tested are given. The Ki value is defined by the following formula: Ki=IC50/[1+L/Kd] in which the IC50 values are those concentrations of the compounds tested which cause 50% inhibition of the competing radioligand ([^3H]MPEP). L is the concentration of radioligand used in the binding experiment and the Kd value of the radioligand is empirically determined for each batch of membranes prepared.
Turning to `Cc1nc2c(Nc3cccc(Cl)c3)nccc2s1` [Example 1], the Ki (as a rule, the dissociation constant of the complex between target and ligand, obtained from inhibition or displacement) stood at 26 nM.
For the compound `Cc1nc(Nc2ncc(-c3cccnc3)c3sc(C)nc23)cs1` [Example 2, (2-Methyl-7-pyridin-3-yl-thiazolo[4,5-c]pyridin-4-yl)-(2-methyl-thiazol-4-yl)-amine], the inhibition constant Ki was determined as 37 nM.
In the case of `Cc1csc(Nc2ncc(-c3cccnc3)c3sc(C)nc23)n1` [Example 3, (2-Methyl-7-pyridin-3-yl-thiazolo[4,5-c]pyridin-4-yl)-(4-methyl-thiazol-2-yl)-amine] it was 42 nM.
Consider `Cc1nc2c(Nc3ccc(F)cn3)ncc(-c3cccnc3)c2s1` [Example 4], for which the Ki was 40 nM.
As to `Cc1nc2c(Nc3ccn(C)n3)ncc(-c3cccnc3)c2s1` [Example 5], the Ki came out at 167 nM.
In the case of `Cc1csc(Nc2ncc(-c3cncnc3)c3sc(C)nc23)n1` [Example 9], the Ki was found to be 61 nM.
Regarding `Cc1nc(Nc2ncc(-c3ccnc(Cl)c3)c3sc(C)nc23)cs1` [Example 14, [7-(2-Chloro-pyridin-4-yl)-2-methyl-thiazolo[4,5-c]pyridin-4-yl]-(2-methyl-thiazol-4-yl)-amine], the Ki was 45 nM.
`Cc1nccc(Nc2ncc(-c3cccc(S(C)(=O)=O)c3)c3sc(C)nc23)n1` [Example 17, [7-(3-Methanesulfonyl-phenyl)-2-methyl-thiazolo[4,5-c]pyridin-4-yl]-(2-methyl-pyrimidin-4-yl)-amine]: the Ki is 128 nM.
For `Cc1csc(Nc2ncc(-c3cc(F)cc(F)c3)c3sc(C)nc23)n1` [Example 19, [7-(3,5-Difluoro-phenyl)-2-methyl-thiazolo[4,5-c]pyridin-4-yl]-(4-methyl-thiazol-2-yl)-amine], the Ki was found to be 29 nM.
Turning to `Cc1ccc(Nc2ncc(-c3cncc(F)c3)c3sc(C)nc23)nc1` [Example 20, [7-(5-Fluoro-pyridin-3-yl)-2-methyl-thiazolo[4,5-c]pyridin-4-yl]-(5-methyl-pyridin-2-yl)-amine], the Ki came to 87 nM.
